# Biological target: T1, Serine protease 1 (Bos taurus, UniProt P00760)
# T1 sequence (P00760 whole entry): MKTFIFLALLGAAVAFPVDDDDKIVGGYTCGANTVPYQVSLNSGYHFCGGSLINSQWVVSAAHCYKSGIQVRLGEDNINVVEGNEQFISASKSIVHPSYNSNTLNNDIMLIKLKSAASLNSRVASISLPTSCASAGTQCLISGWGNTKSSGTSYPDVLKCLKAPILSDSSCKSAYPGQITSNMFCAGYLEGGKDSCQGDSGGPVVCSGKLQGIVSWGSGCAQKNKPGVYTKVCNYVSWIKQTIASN
# Assay: Enzyme Inhibition Assay
# Description: The enzyme activities were determined kinetically as the initial rate of cleavage of a peptide p-nitroanilide. Km for enzyme and substrate was determined using four substrate dilutions. Enzyme was incubated with test compounds for 10 min; the reaction was then started by the addition of the substrate. […] IC50 values for inhibitors were determined from the dose response curve by fitting the data to the Hill equation. Ki,app values were calculated as the IC50/2, with the IC50 value determined at a substrate concentration equal to Km
row,Compound,Ki
1,O=C(O)CN1CCN(Cc2ccc3c(Cl)c(C(=O)Nc4ccc(Cl)cc4C(=O)Nc4ccc(Cl)cc4)sc3c2)CC1 [2-(4-{[3-chloro-2-({4-chloro-2-[(4-chlorophenyl)carbamoyl]phenyl}carbamoyl)-1-benzothiophen-6-yl]methyl}piperazin-1-yl)acetic acid],> 5 µM
2,O=C(Nc1ccc(Cl)cc1)c1cc(Cl)ccc1NC(=O)c1sc2ccccc2c1Cl [3-chloro-N-{4-chloro-2-[(4-chlorophenyl)carbamoyl]phenyl}-1-benzothiophene-2-carboxamide],> 5 µM
3,"O=C(Nc1ccc(Cl)cc1)c1cc(Cl)ccc1NC(=O)c1scc(Cn2ccnn2)c1Cl [3-chloro-N-{4-chloro-2-[(4-chlorophenyl)carbamoyl]phenyl}-4-(1H-1,2,3-triazol-1-ylmethyl)thiophene-2-carboxamide]",> 5 µM
4,"O=C(Nc1ccc(Cl)cc1)c1cc(Cl)ccc1NC(=O)c1scc(Cn2cncn2)c1Cl [3-chloro-N-{4-chloro-2-[(4-chlorophenyl)carbamoyl]phenyl}-4-(1H-1,2,4-triazol-1-ylmethyl)thiophene-2-carboxamide]",> 5 µM
5,O=C(Nc1ccc(Cl)cc1)c1cc(Cl)ccc1NC(=O)c1scc(Cn2ccnc2)c1Cl [3-chloro-N-{4-chloro-2-[(4-chlorophenyl)carbamoyl]phenyl}-4-(1H-imidazol-1-ylmethyl)thiophene-2-carboxamide],> 5 µM
6,O=C(Nc1ccc(Cl)cc1)c1cc(Cl)ccc1NC(=O)c1scc(Cn2cccn2)c1Cl [3-chloro-N-{4-chloro-2-[(4-chlorophenyl)carbamoyl]phenyl}-4-(1H-pyrazol-1-ylmethyl)thiophene-2-carboxamide],> 5 µM
7,"O=C(Nc1ccc(Cl)cc1)c1cc(Cl)ccc1NC(=O)c1scc(Cn2ncnn2)c1Cl [3-chloro-N-{4-chloro-2-[(4-chlorophenyl)carbamoyl]phenyl}-4-(2H-1,2,3,4-tetrazol-2-ylmethyl)thiophene-2-carboxamide]",> 5 µM
8,"O=C(Nc1ccc(Cl)cc1)c1cc(Cl)ccc1NC(=O)c1scc(Cn2nccn2)c1Cl [3-chloro-N-{4-chloro-2-[(4-chlorophenyl)carbamoyl]phenyl}-4-(2H-1,2,3-triazol-2-ylmethyl)thiophene-2-carboxamide]",> 5 µM
9,C[S+]([O-])Cc1csc(C(=O)Nc2ccc(Cl)cc2C(=O)Nc2ccc(Cl)cc2)c1Cl (stereo not drawn) [3-chloro-N-{4-chloro-2-[(4-chlorophenyl)carbamoyl]phenyl}-4-(methanesulfinylmethyl)thiophene-2-carboxamide],> 5 µM
10,CS(=O)(=O)Cc1csc(C(=O)Nc2ccc(Cl)cc2C(=O)Nc2ccc(Cl)cc2)c1Cl [3-chloro-N-{4-chloro-2-[(4-chlorophenyl)carbamoyl]phenyl}-4-(methanesulfonylmethyl)thiophene-2-carboxamide],> 5 µM
11,O=C(Nc1ccc(Cl)cc1)c1cc(Cl)ccc1NC(=O)c1scc(CN2CCOCC2)c1Cl [3-chloro-N-{4-chloro-2-[(4-chlorophenyl)carbamoyl]phenyl}-4-(morpholin-4-ylmethyl)thiophene-2-carboxamide],> 5 µM
12,O=C(Nc1ccc(Cl)cc1)c1cc(Cl)ccc1NC(=O)c1scc(CN2CCSCC2)c1Cl [3-chloro-N-{4-chloro-2-[(4-chlorophenyl)carbamoyl]phenyl}-4-(thiomorpholin-4-ylmethyl)thiophene-2-carboxamide],> 5 µM
13,CN(CCOCCO)Cc1csc(C(=O)Nc2ccc(Cl)cc2C(=O)Nc2ccc(Cl)cc2)c1Cl [3-chloro-N-{4-chloro-2-[(4-chlorophenyl)carbamoyl]phenyl}-4-({[2-(2-hydroxyethoxy)ethyl](methyl)amino}methyl)thiophene-2-carboxamide],> 5 µM
14,CCN(CC)CCN(C)Cc1csc(C(=O)Nc2ccc(Cl)cc2C(=O)Nc2ccc(Cl)cc2)c1Cl [3-chloro-N-{4-chloro-2-[(4-chlorophenyl)carbamoyl]phenyl}-4-({[2-(diethylamino)ethyl](methyl)amino}methyl)thiophene-2-carboxamide],> 5 µM
15,CN(C)CCN(C)Cc1csc(C(=O)Nc2ccc(Cl)cc2C(=O)Nc2ccc(Cl)cc2)c1Cl [3-chloro-N-{4-chloro-2-[(4-chlorophenyl)carbamoyl]phenyl}-4-({[2-(dimethylamino)ethyl](methyl)amino}methyl)thiophene-2-carboxamide],> 5 µM
16,CN(C)CCSCc1csc(C(=O)Nc2ccc(Cl)cc2C(=O)Nc2ccc(Cl)cc2)c1Cl [3-chloro-N-{4-chloro-2-[(4-chlorophenyl)carbamoyl]phenyl}-4-({[2-(dimethylamino)ethyl]sulfanyl}methyl)thiophene-2-carboxamide],> 5 µM
17,O=C(Nc1ccc(Cl)cc1)c1cc(Cl)ccc1NC(=O)c1scc(CNCCCn2ccnc2)c1Cl [3-chloro-N-{4-chloro-2-[(4-chlorophenyl)carbamoyl]phenyl}-4-({[3-(1H-imidazol-1-yl)propyl]amino}methyl)thiophene-2-carboxamide],> 5 µM

row,Compound,Ki
1,CN(C)CCCN(C)Cc1csc(C(=O)Nc2ccc(Cl)cc2C(=O)Nc2ccc(Cl)cc2)c1Cl [3-chloro-N-{4-chloro-2-[(4-chlorophenyl)carbamoyl]phenyl}-4-({[3-(dimethylamino)propyl](methyl)amino}methyl)thiophene-2-carboxamide],> 5 µM
2,CN(CCN1CCCC1)Cc1csc(C(=O)Nc2ccc(Cl)cc2C(=O)Nc2ccc(Cl)cc2)c1Cl [3-chloro-N-{4-chloro-2-[(4-chlorophenyl)carbamoyl]phenyl}-4-({methyl[2-(pyrrolidin-1-yl)ethyl]amino}methyl)thiophene-2-carboxamide],> 5 µM
3,"O=C(Nc1ccc(Cl)cc1)c1cc(Cl)ccc1NC(=O)c1scc(COCC(O)CO)c1Cl (stereo not drawn) [3-chloro-N-{4-chloro-2-[(4-chlorophenyl)carbamoyl]phenyl}-4-[(2,3-dihydroxypropoxy)methyl]thiophene-2-carboxamide]",> 5 µM
4,COCCOCc1csc(C(=O)Nc2ccc(Cl)cc2C(=O)Nc2ccc(Cl)cc2)c1Cl [3-chloro-N-{4-chloro-2-[(4-chlorophenyl)carbamoyl]phenyl}-4-[(2-methoxyethoxy)methyl]thiophene-2-carboxamide],> 5 µM
5,CC(=O)N1CCN(Cc2csc(C(=O)Nc3ccc(Cl)cc3C(=O)Nc3ccc(Cl)cc3)c2Cl)CC1 [3-chloro-N-{4-chloro-2-[(4-chlorophenyl)carbamoyl]phenyl}-4-[(4-acetylpiperazin-1-yl)methyl]thiophene-2-carboxamide],> 5 µM
6,CCN1CCN(Cc2csc(C(=O)Nc3ccc(Cl)cc3C(=O)Nc3ccc(Cl)cc3)c2Cl)CC1 [3-chloro-N-{4-chloro-2-[(4-chlorophenyl)carbamoyl]phenyl}-4-[(4-ethylpiperazin-1-yl)methyl]thiophene-2-carboxamide],> 5 µM
7,CSCc1csc(C(=O)Nc2ccc(Cl)cc2C(=O)Nc2ccc(Cl)cc2)c1Cl [3-chloro-N-{4-chloro-2-[(4-chlorophenyl)carbamoyl]phenyl}-4-[(methylsulfanyl)methyl]thiophene-2-carboxamide],> 5 µM
8,Cc1cccc2sc(C(=O)Nc3ccc(Cl)cc3C(=O)Nc3ccc(Cl)cc3)c(Cl)c12 [3-chloro-N-{4-chloro-2-[(4-chlorophenyl)carbamoyl]phenyl}-4-methyl-1-benzothiophene-2-carboxamide],> 5 µM
9,Cc1csc(C(=O)Nc2ccc(Cl)cc2C(=O)Nc2ccc(Cl)cc2)c1Cl [3-chloro-N-{4-chloro-2-[(4-chlorophenyl)carbamoyl]phenyl}-4-methylthiophene-2-carboxamide],> 5 µM
10,COCCOCCOCc1csc(C(=O)Nc2ccc(Cl)cc2C(=O)Nc2ccc(Cl)cc2)c1Cl [3-chloro-N-{4-chloro-2-[(4-chlorophenyl)carbamoyl]phenyl}-4-{[2-(2-methoxyethoxy)ethoxy]methyl}thiophene-2-carboxamide],> 5 µM
11,"CC1(C)OCC(COCc2csc(C(=O)Nc3ccc(Cl)cc3C(=O)Nc3ccc(Cl)cc3)c2Cl)O1 (stereo not drawn) [3-chloro-N-{4-chloro-2-[(4-chlorophenyl)carbamoyl]phenyl}-4-{[(2,2-dimethyl-1,3-dioxolan-4-yl)methoxy]methyl}thiophene-2-carboxamide]",> 5 µM
12,"CN(Cc1csc(C(=O)Nc2ccc(Cl)cc2C(=O)Nc2ccc(Cl)cc2)c1Cl)CC(O)CO (stereo not drawn) [3-chloro-N-{4-chloro-2-[(4-chlorophenyl)carbamoyl]phenyl}-4-{[(2,3-dihydroxypropyl)(methyl)amino]methyl}thiophene-2-carboxamide]",> 5 µM
13,CN(CCO)Cc1csc(C(=O)Nc2ccc(Cl)cc2C(=O)Nc2ccc(Cl)cc2)c1Cl [3-chloro-N-{4-chloro-2-[(4-chlorophenyl)carbamoyl]phenyl}-4-{[(2-hydroxyethyl)(methyl)amino]methyl}thiophene-2-carboxamide],> 5 µM
14,O=C(Nc1ccc(Cl)cc1)c1cc(Cl)ccc1NC(=O)c1sc(CN2CCOCC2)cc1Cl [3-chloro-N-{4-chloro-2-[(4-chlorophenyl)carbamoyl]phenyl}-5-(morpholin-4-ylmethyl)thiophene-2-carboxamide],> 5 µM
15,CN1CCN(Cc2cc(Cl)c(C(=O)Nc3ccc(Cl)cc3C(=O)Nc3ccc(Cl)cc3)s2)CC1 [3-chloro-N-{4-chloro-2-[(4-chlorophenyl)carbamoyl]phenyl}-5-[(4-methylpiperazin-1-yl)methyl]thiophene-2-carboxamide],> 5 µM
16,CN1CCN(Cc2ccc3c(Cl)c(C(=O)Nc4ccc(Cl)cc4C(=O)Nc4ccc(Cl)cc4)sc3c2)CC1 [3-chloro-N-{4-chloro-2-[(4-chlorophenyl)carbamoyl]phenyl}-6-[(4-methylpiperazin-1-yl)methyl]-1-benzothiophene-2-carboxamide],> 5 µM
